Counter-ions that a name gives are not always drawn.
Tests used:
[1] = system: angiogenesis; experiment: fertile egg or chick embryo assay of Folkman (inhibition of angiogenesis / tumor growth); type: in vivo; conditions: chick embryo; for inhibition of angiogenesis: 50 μg/10 μl with heparin, avascular zone 4 mm or greater; for % of Embryos with 4 mm or Greater A vascular Zone: 50 μg/10 μl in the presence of heparin
Protocol: According to this procedure compounds which are considered to be "active" (i.e, antiangiogenic) give an avascular zone of 4 mm or greater in some embryos when tested at 50 μg/10 μl in the presence of 50 μg/10 μ of heparin.

[2] = system: arachidonic acid; experiment: Arachidonic Acid Antagonism Assay (AAAA); type: in vivo, mouse (Charles River male CF-1); conditions: mice; for arachidonic acid antagonism (elevation of LD50 of arachidonic acid): IV, 15 min before sodium arachidonate, outside 95% confidence interval of control LD50
Protocol: While not necessary to determine arachidonic acid antagonism, the above assay has been modified as follows: Charles River male CF-1 mice weighing […] are treated IV with the test compound dissolved in 1.0% Tween-80 and 0.1% hydrochloric acid in distilled water. 0 2 ml total volume. Fifteen minutes later sodium arachidonate (90% pure) in physiological (normal) […] is injected into the tail vein. The LD50 is measured using the Spearman-Karber method with a log dose interval of 0.05 (N-6). Compounds which elevate the LD50 outside of the 95% confidence interval of the control LD50 are considered to be "active".

Structure (SMILES)	inhibition of angiogenesis [1]	arachidonic acid antagonism (elevation of LD50 of arachidonic acid) [2]	also measured
CCN(CC)c1cc(N2CCN(CC(=O)[C@@]3(O)CC[C@H]4[C@@H]5C[C@H](C)C6=CC(=O)C=C[C@]6(C)C5=CC[C@@]43C)CC2)nc(N(CC)CC)n1 [Example 63, 21-[4-[2,6-bis(diethylamino)-4-pyrimidinyl]-1-piperazinyl]-17α-hydroxy-6α-methylpregna-1,4,9(11)-triene-3,20-dione(E)-2-butenedioate (1:1) salt]	demonstrate inhibition of angiogenesis		
C[C@H]1C[C@H]2[C@@H]3CC[C@H]4CC(=O)CC[C@]4(C)C3=CC[C@]2(C)[C@@]1(O)C(=O)CN1CCN(c2ccccn2)CC1.Cl.Cl.O [Example 44, 17α-hydroxy-16β-methyl-21-[4-(2-pyridinyl)-1-piperazinyl]-5α-pregn-9(11)-ene-3,20-dione dihydrochloride hydrate]			% of Embryos with 4 mm or Greater A vascular Zone [1]: 75%
COc1ccccc1N1CCN(CC(=O)[C@@]2(O)CC[C@H]3[C@@H]4CCC5=CC(=O)CC[C@]5(C)[C@H]4CC[C@@]32C)CC1.Cl.Cl.O [Example 41, 17α-hydroxy-21-[4-(2-methoxyphenyl)-1-piperazinyl]-pregn-4-ene-3,20-dione dihydrochloride hydrate]			% of Embryos with 4 mm or Greater A vascular Zone [1]: 80%
COc1ccc(N2CCN(CC(=O)[C@@]3(O)CC[C@H]4[C@@H]5CCC6=CC(=O)CC[C@]6(C)[C@H]5[C@H](OC(=O)CC(C)(C)C)C[C@@]43C)CC2)cc1 [Example 32, 11α,17α-dihydroxy-21-[4-(4-methoxyphenyl)-1-piperazinyl]pregn-4-ene-3,20-dione 11-(3,3-dimethyl 1-butyrate) dihydrochloride]	demonstrate inhibition of angiogenesis		
COc1ccc(CCN(CC(=O)[C@@]2(O)CC[C@H]3[C@@H]4CCC5=CC(=O)CC[C@]5(C)C4=CC[C@@]32C)Cc2ccc(N(C)C)cc2)cc1OC [Example 51, 17α-hydroxy-21-[[2-(3,4-dimethoxyphenyl)ethyl]-4-(dimethylamino)phenyl]methyl]amino]pregna-4,9(11)-3,20-dione hydrochloride]		demonstrate arachidonic acid antagonism	
C[C@]12C=CC(=O)C=C1CC[C@@H]1C2=CC[C@@]2(C)[C@H]1CC[C@]2(O)C(=O)CN1CCN(c2cc(N3CCCC3)nc(N3CCCC3)n2)CC1.Cl.Cl.O [Example 74, 17α-hydroxy-21-[4-[2,6-di-(1-pyrrolidinyl)-4-pyrimidinyl]-1-piperazinyl]pregna-1,4,9(11)-triene-3,20-dione dihydrochloride hydrate]		demonstrate arachidonic acid antagonism	
C=CCNc1nc(NCC=C)nc(N2CCN(CC(=O)[C@@]3(O)CC[C@H]4[C@@H]5CCC6=CC(=O)CC[C@]6(C)C5=CC[C@@]43C)CC2)n1.Cl.Cl.O [Example 60, 17α-hydroxy-21-[4-[4,6-bis(2-propenylamino)-1,3,5-triazin-2-yl]-1-piperazinyl]pregna-4,9(11)-diene-3,20-dione dihydrochloride hydrate]		demonstrate arachidonic acid antagonism	
CCN(CC)c1cc(N2CCN(CC(=O)[C@@]3(O)CC[C@H]4[C@@H]5CCC6=CC(=O)C=C[C@]6(C)C5=CC[C@@]43C)CC2)nc(N(CC)CC)n1.Cl.Cl.O [Example 75, 21-[4-[2,6-bis(diethylamino)-4-pyrimidinyl]-1-piperazinyl]-17α-hydroxypregna-1,4,9(11)-triene-3,20-dione dihydrochloride hydrate]		demonstrate arachidonic acid antagonism	
C[C@]12CCC(=O)C=C1CC[C@@H]1C2=CC[C@@]2(C)[C@H]1CC[C@]2(O)C(=O)CN1CCN(Cc2ccccn2)CC1 [Example 54, 17α-hydroxy-21-[4-(2-pyridinylmethyl)-1-piperazinyl]-pregna-4,9(11)-diene-3,20-dione(E)-2-butenedioate 1:1 salt]		demonstrate arachidonic acid antagonism	
COc1cccc(N2CCN(CC(=O)[C@@]3(O)CC[C@H]4[C@@H]5CCC6=CC(=O)CC[C@]6(C)C5=CC[C@@]43C)CC2)n1.CS(=O)(=O)O [Example 22, 17α-hydroxy-21-[4-(6-methoxy-2-pyridinyl)-1-piperazinyl]pregna-4,9(11)-diene-3,20-dione monomethanesulfonate]		demonstrate arachidonic acid antagonism	
CN1CCN(c2cc(N3CCN(CC(=O)[C@@]4(O)CC[C@H]5[C@@H]6CCC7=CC(=O)CC[C@]7(C)C6=CC[C@@]54C)CC3)nc(N3CCN(C)CC3)n2)CC1.CS(=O)(=O)O.O [Example 19, 17α-Hydroxy-21-[4-[2,6-bis(4-methyl 1 piperazinyl)-4-pyrimidinyl]-1-piperazinyl]pregna-4,9(11)-diene-3,20-dione methanesulfonate hydrate]		demonstrate arachidonic acid antagonism	
C[C@]12CCC(=O)C=C1CC[C@@H]1[C@@H]2[C@H](O)C[C@@]2(C)[C@H]1CC[C@]2(O)C(=O)CN1CCN(c2ccc(F)cc2)CC1 [Example 29, 21-[4-(4-fluorophenyl)-1-piperazinyl]-11α,17α-dihydroxypregn-4-ene-3,20-dione dihydrochloride]		demonstrate arachidonic acid antagonism	
C[C@]12C=CC(=O)C=C1CC[C@@H]1[C@@H]2[C@@H](O)C[C@@]2(C)[C@H]1CC[C@]2(O)C(=O)CN1CCN(c2ccccn2)CC1 [Example 25, 11β,17α-dihydroxy-21-[4-(2-pyridinyl)-1-piperazinyl]-pregna-1,4-diene-3,20-dione dihydrochloride]		demonstrate arachidonic acid antagonism	
COc1ccc(N2CCN(CC(=O)[C@@]3(O)CC[C@H]4[C@@H]5C[C@H](C)C6=CC(=O)C=C[C@]6(C)[C@H]5[C@@H](O)C[C@@]43C)CC2)cc1 [Example 33, 11β,17α-dihydroxy-21-[4-(4-methoxyphenyl)-1-piperazinyl]-6α-methylpregna-1,4-diene-3,20-dione dihydrochloride]	demonstrate inhibition of angiogenesis		
C[C@]12C[C@@H](O)[C@H]3[C@@H](CCC4=CC(=O)CC[C@@]43C)[C@@H]1CC[C@@H]2C(=O)CN1CCN(c2ccccn2)CC1.Cl.Cl [Example 36, 11α-hydroxy-21-[4-(2-pyridinyl)-1-piperazinyl]pregn-4-ene-3,20-dione, dihydrochloride]	demonstrate inhibition of angiogenesis		
COc1ccc(CCNCC(=O)[C@@]2(O)CC[C@H]3[C@@H]4C[C@H](C)C5=CC(=O)C=C[C@]5(C)[C@H]4[C@@H](O)C[C@@]32C)cc1OC [Example 34, 11β,17α-dihydroxy-21-[[2-(3,4-dimethoxyphenyl)ethyl]-amino]-6α-methylpregna-1,4-diene-3,20-dione hydrochloride]	demonstrate inhibition of angiogenesis		
CCN(CC)c1cc(N2CCN(C(=O)[C@@]3(O)CC[C@H]4[C@@H]5CCC6=CC(=O)CC[C@]6(C)[C@H]5CC[C@@]43C)CC2)nc(N(CC)CC)n1 [Example 57]		demonstrate arachidonic acid antagonism	% of Control LD50 ([2]; 100 mg/kg, LD50 of sodium arachidonate): 124%
C[C@]12CC(=O)[C@H]3[C@@H](CCC4=CC(=O)CC[C@@]43C)[C@@H]1CC[C@@H]2C(=O)CN1CCN(c2ccccn2)CC1.Cl.O [Example 45, 21-[4-(2-pyridinyl)-1-piperazinyl]pregn-4-ene-3,11,20-trione hydrochloride hydrate]		demonstrate arachidonic acid antagonism	
C[C@]12CC[C@@H](O)C[C@H]1CC[C@@H]1[C@@H]2C(=O)C[C@@]2(C)[C@H]1CC[C@]2(O)C(=O)CN1CCN(c2ccccn2)CC1 [Example 99, 3α,17α-dihydroxy-21-[4-(2-pyridinyl)-1-piperazinyl]-5β-pregnane-11,20-dione dihydrochloride hydrate]	demonstrate inhibition of angiogenesis		
C[C@]12CCC(=O)C=C1CC[C@@H]1[C@@H]2C(=O)C[C@@]2(C)[C@H]1CC[C@]2(O)C(=O)CN1CCN(c2ccccn2)CC1 [Example 20]	demonstrate inhibition of angiogenesis		% of Embryos with 4 mm or Greater A vascular Zone [1]: 72%
CCN(CC)c1cc(N2CCN(CC(=O)[C@@]3(O)CC[C@H]4[C@@H]5CCC6=CC(=O)CC[C@]6(C)[C@H]5CC[C@@]43C)CC2)nc(N(CC)CC)n1 [Example 53, 21-[4-[2,-bis(diethylamino)-4-pyrimidinyl]-1-piperazinyl]-17α-hydroxypregn-4-ene-3,20-dione]		demonstrate arachidonic acid antagonism	
C[C@]12CCC(=O)C=C1CC[C@@H]1C2=CC[C@@]2(C)[C@H]1CC[C@]2(O)C(=O)CN1CCN(c2cc(N3CCCC3)nc(N3CCCC3)n2)CC1 [Example 64, 17α-hydroxy-21-[4-[2,6-bis(1-pyrrolidinyl)-4-pyrimidinyl]-1-piperazinyl]pregna-4,9(11)-diene-3,20-dione (E)-2-butenedioate (1:1) salt]	demonstrate inhibition of angiogenesis		
C[C@]12CCC(=O)C=C1CC[C@@H]1C2=CC[C@@]2(C)[C@H]1CC[C@]2(O)C(=O)CN1CCN(C(=O)c2ccco2)CC1 [Example 6B, 17α-Hydroxy-21-[4-(2-furonylcarbonyl)-1-piperazinyl]-pregna-4,9(11)-diene-3,20-dione]	demonstrate inhibition of angiogenesis		

Source: patent USRE35053E, “Amines useful in producing pharmaceutically active CNS compounds” (The Upjohn Company, priority 1992, dated 1995)
